Test results from ChEMBL document CHEMBL1152890, “Synthesis and evaluation of a novel series of heterocyclic oleanolic acid derivatives with anti-osteoclast formation activity” (Eur J Med Chem, 2009).

How the values were obtained:
[1] = Antiosteoclast activity in ICR mouse osteoblast like cells co-cultured with bone marrow cells assessed as effect on 1-alpha,25(OH)2D3-induced TRAP-positive osteoclast like multinucleated cell formation at 20 uM after 6 days medium replaced every 2 days relative to control; format: functional
[2] = Antiosteoclast activity in ICR mouse osteoblast like cells co-cultured with bone marrow cells assessed as effect on 1-alpha,25(OH)2D3-induced TRAP-positive osteoclast like multinucleated cell formation at 2 uM after 6 days medium replaced every 2 days relative to control; format: functional
[3] = Antiosteoclast activity in ICR mouse osteoblast like cells co-cultured with bone marrow cells assessed as effect on 1-alpha,25(OH)2D3-induced TRAP-positive osteoclast like multinucleated cell formation at 200 uM after 6 days medium replaced every 2 days relative to control; format: functional
[4] = Antiosteoclast activity in ICR mouse osteoblast like cells co-cultured with bone marrow cells assessed as recovery of 1-alpha,25(OH)2D3-induced TRAP-positive osteoclast like multinucleated cell formation at 2 uM after 6 days drug removal after 2 days relative to control; format: functional
[5] = Antiosteoclast activity in ICR mouse osteoblast like cells co-cultured with bone marrow cells assessed as recovery of 1-alpha,25(OH)2D3-induced TRAP-positive osteoclast like multinucleated cell formation at 20 uM after 6 days drug removal after 2 days relative to control; format: functional
[6] = Cytotoxicity against ICR mouse osteoblast like cells assessed as cell viability at 2 uM after 4 days drug removal after 2 days by MTT assay relative to control; format: cell-based; details: read-out: Activity

COC(=O)[C@H](C)NC(=O)[C@]12CCC(C)(C)C[C@H]1C1=CC[C@@H]3[C@@]4(C)Cc5nccnc5C(C)(C)[C@@H]4CC[C@@]3(C)[C@]1(C)CC2
Activity [1]: 3.4%
Activity [2]: 3.8%
Activity [3]: 93.7%
Activity [4]: 96.1%

COC(=O)CNC(=O)[C@]12CCC(C)(C)C[C@H]1C1=CC[C@@H]3[C@@]4(C)CCC(=O)C(C)(C)[C@@H]4CC[C@@]3(C)[C@]1(C)CC2
Activity [1]: 0%
Activity [2]: 27.2%
Activity [3]: 31.7%
Activity [5]: 41.3%
Activity [4]: 73.9%
viability at 96 h, 2 µM [6]: 141%

COC(=O)[C@H](C)NC(=O)[C@]12CCC(C)(C)C[C@H]1C1=CC[C@@H]3[C@@]4(C)Cc5nc6ccccc6nc5C(C)(C)[C@@H]4CC[C@@]3(C)[C@]1(C)CC2
Activity [1]: 31.2%
Activity [2]: 25.7%
Activity [3]: 77%
Activity [5]: 97.7%

CC[C@H](C)[C@H](NC(=O)[C@]12CCC(C)(C)C[C@H]1C1=CC[C@@H]3[C@@]4(C)Cc5nccnc5C(C)(C)[C@@H]4CC[C@@]3(C)[C@]1(C)CC2)C(=O)O
Activity [1]: 73.7%
Activity [2]: 16.2%
Activity [3]: 52.6%
Activity [4]: 81.3%
viability at 96 h, 2 µM [6]: 109%

CC(C)C[C@H](NC(=O)[C@]12CCC(C)(C)C[C@H]1C1=CC[C@@H]3[C@@]4(C)Cc5nccnc5C(C)(C)[C@@H]4CC[C@@]3(C)[C@]1(C)CC2)C(=O)O
Activity [1]: 44.8%
Activity [2]: 21.2%
Activity [3]: 100.2%
Activity [4]: 93.9%

CC1(C)CC[C@]2(C(=O)O)CC[C@]3(C)C(=CC[C@@H]4[C@@]5(C)Cc6cc7ccccc7nc6C(C)(C)[C@@H]5CC[C@]43C)[C@@H]2C1
Activity [1]: 33.2%
Activity [2]: 39.2%
Activity [3]: 97.2%
Activity [5]: 18.9%
Activity [4]: 73%
viability at 96 h, 2 µM [6]: 134%

CC1(C)CC[C@]2(C(=O)O)CC[C@]3(C)C(=CC[C@@H]4[C@@]5(C)Cc6nc(-c7ccccc7)c(-c7ccccc7)nc6C(C)(C)[C@@H]5CC[C@]43C)[C@@H]2C1
Activity [1]: 28.1%
Activity [2]: 76.2%
Activity [5]: 94.5%

CC(C)[C@H](NC(=O)[C@]12CCC(C)(C)C[C@H]1C1=CC[C@@H]3[C@@]4(C)Cc5c([nH]c6ccc(Cl)cc56)C(C)(C)[C@@H]4CC[C@@]3(C)[C@]1(C)CC2)C(=O)O
Activity [1]: 0%
Activity [2]: 80%
Activity [5]: 0%

CC(C)C[C@H](NC(=O)[C@]12CCC(C)(C)C[C@H]1C1=CC[C@@H]3[C@@]4(C)Cc5nc6ccccc6nc5C(C)(C)[C@@H]4CC[C@@]3(C)[C@]1(C)CC2)C(=O)O
Activity [1]: 45.9%
Activity [2]: 58.3%
Activity [3]: 86.3%
Activity [5]: 92.3%

CC1(C)CC[C@]2(C(=O)O)CC[C@]3(C)C(=CC[C@@H]4[C@@]5(C)Cc6c([nH]c7ccc(Cl)cc67)C(C)(C)[C@@H]5CC[C@]43C)[C@@H]2C1
Activity [1]: 0%
Activity [2]: 13%
Activity [3]: 99.5%
Activity [5]: 0%
Activity [4]: 73.3%
viability at 96 h, 2 µM [6]: 132%

CC[C@H](C)[C@H](NC(=O)[C@]12CCC(C)(C)C[C@H]1C1=CC[C@@H]3[C@@]4(C)Cc5c([nH]c6ccc(Cl)cc56)C(C)(C)[C@@H]4CC[C@@]3(C)[C@]1(C)CC2)C(=O)O
Activity [1]: 0%
Activity [2]: 86.9%
Activity [5]: 0%

C[C@H](NC(=O)[C@]12CCC(C)(C)C[C@H]1C1=CC[C@@H]3[C@@]4(C)Cc5c([nH]c6ccc(Cl)cc56)C(C)(C)[C@@H]4CC[C@@]3(C)[C@]1(C)CC2)C(=O)O
Activity [1]: 0%
Activity [2]: 1.4%
Activity [3]: 98.3%
Activity [5]: 0%
Activity [4]: 93.4%

COC(=O)[C@H](CC(C)C)NC(=O)[C@]12CCC(C)(C)C[C@H]1C1=CC[C@@H]3[C@@]4(C)Cc5nc6ccccc6nc5C(C)(C)[C@@H]4CC[C@@]3(C)[C@]1(C)CC2
Activity [1]: 14%
Activity [2]: 55.1%
Activity [3]: 91.2%
Activity [5]: 97.3%

COC(=O)[C@@H](NC(=O)[C@]12CCC(C)(C)C[C@H]1C1=CC[C@@H]3[C@@]4(C)Cc5nccnc5C(C)(C)[C@@H]4CC[C@@]3(C)[C@]1(C)CC2)C(C)C
Activity [1]: 27.8%
Activity [2]: 59.8%
Activity [3]: 78.4%
Activity [5]: 73.1%
Activity [4]: 77.6%
viability at 96 h, 2 µM [6]: 142%

CC1(C)CC[C@]2(C(=O)O)CC[C@]3(C)C(=CC[C@@H]4[C@@]5(C)Cc6c([nH]c7ccc(C(=O)O)cc67)C(C)(C)[C@@H]5CC[C@]43C)[C@@H]2C1
Activity [1]: 0%
Activity [2]: 77.2%
Activity [5]: 97.8%

COC(=O)CNC(=O)[C@]12CCC(C)(C)C[C@H]1C1=CC[C@@H]3[C@@]4(C)Cc5nc6ccccc6nc5C(C)(C)[C@@H]4CC[C@@]3(C)[C@]1(C)CC2
Activity [1]: 20.7%
Activity [2]: 31.9%
Activity [3]: 34.1%
Activity [5]: 94.3%

COC(=O)[C@H](CC(C)C)NC(=O)[C@]12CCC(C)(C)C[C@H]1C1=CC[C@@H]3[C@@]4(C)Cc5nccnc5C(C)(C)[C@@H]4CC[C@@]3(C)[C@]1(C)CC2
Activity [1]: 2.8%
Activity [2]: 1.7%
Activity [3]: 96.4%
Activity [4]: 95.7%

CC(C)C[C@H](NC(=O)[C@]12CCC(C)(C)C[C@H]1C1=CC[C@@H]3[C@@]4(C)Cc5c([nH]c6ccccc56)C(C)(C)[C@@H]4CC[C@@]3(C)[C@]1(C)CC2)C(=O)O
Activity [1]: 0%
Activity [2]: 98.2%
Activity [5]: 80.5%

COC(=O)[C@H](Cc1ccccc1)NC(=O)[C@]12CCC(C)(C)C[C@H]1C1=CC[C@@H]3[C@@]4(C)Cc5nccnc5C(C)(C)[C@@H]4CC[C@@]3(C)[C@]1(C)CC2
Activity [1]: 29.6%
Activity [2]: 82.8%
Activity [5]: 89.5%
Activity [4]: 95.6%

COC(=O)[C@H](Cc1ccccc1)NC(=O)[C@]12CCC(C)(C)C[C@H]1C1=CC[C@@H]3[C@@]4(C)Cc5c([nH]c6ccc(Cl)cc56)C(C)(C)[C@@H]4CC[C@@]3(C)[C@]1(C)CC2
Activity [1]: 77.4%
Activity [5]: 70.7%
Activity [4]: 95.2%

CC[C@H](C)[C@H](NC(=O)[C@]12CCC(C)(C)C[C@H]1C1=CC[C@@H]3[C@@]4(C)Cc5nc6ccccc6nc5C(C)(C)[C@@H]4CC[C@@]3(C)[C@]1(C)CC2)C(=O)O
Activity [1]: 30.6%
Activity [2]: 58.7%
Activity [3]: 95%
Activity [5]: 94.7%

COC(=O)CNC(=O)[C@]12CCC(C)(C)C[C@H]1C1=CC[C@@H]3[C@@]4(C)Cc5c([nH]c6ccccc56)C(C)(C)[C@@H]4CC[C@@]3(C)[C@]1(C)CC2
Activity [1]: 0%
Activity [2]: 32.3%
Activity [3]: 86.3%
Activity [5]: 82.9%
Activity [4]: 96.1%

COC(=O)[C@@H](NC(=O)[C@]12CCC(C)(C)C[C@H]1C1=CC[C@@H]3[C@@]4(C)Cc5nc6ccccc6nc5C(C)(C)[C@@H]4CC[C@@]3(C)[C@]1(C)CC2)C(C)C
Activity [1]: 36.3%
Activity [2]: 37.1%
Activity [3]: 93%
Activity [5]: 94.6%

CC1(C)CC[C@]2(C(=O)O)CC[C@]3(C)C(=CC[C@@H]4[C@@]5(C)CC[C@H](O)C(C)(C)[C@@H]5CC[C@]43C)[C@@H]2C1 [OLEANOLIC_ACID]
Activity [1]: 19.4%
Activity [2]: 89.5%
Activity [3]: 97.5%
Activity [5]: 98%

NCCCC(O)(P(=O)([O-])O)P(=O)(O)O.[Na+] [ALENDRONATE SODIUM]
Activity [1]: 0%
Activity [2]: 3.5%
Activity [3]: 47.5%

COC(=O)[C@H](Cc1ccccc1)NC(=O)[C@]12CCC(C)(C)C[C@H]1C1=CC[C@@H]3[C@@]4(C)Cc5nc6ccccc6nc5C(C)(C)[C@@H]4CC[C@@]3(C)[C@]1(C)CC2
Activity [1]: 34.2%
Activity [2]: 53.6%
Activity [3]: 93%
Activity [5]: 93.5%

CC(C)[C@H](NC(=O)[C@]12CCC(C)(C)C[C@H]1C1=CC[C@@H]3[C@@]4(C)Cc5nc6ccccc6nc5C(C)(C)[C@@H]4CC[C@@]3(C)[C@]1(C)CC2)C(=O)O
Activity [1]: 42.8%
Activity [2]: 47.3%
Activity [3]: 57.5%
Activity [4]: 70.6%
viability at 96 h, 2 µM [6]: 128%

CC1(C)CC[C@]2(C(=O)O)CC[C@]3(C)C(=CC[C@@H]4[C@@]5(C)Cc6nccnc6C(C)(C)[C@@H]5CC[C@]43C)[C@@H]2C1
Activity [1]: 1.8%
Activity [2]: 16.4%
Activity [3]: 97.6%
Activity [5]: 93.2%

CC[C@H](C)[C@H](NC(=O)[C@]12CCC(C)(C)C[C@H]1C1=CC[C@@H]3[C@@]4(C)Cc5nccnc5C(C)(C)[C@@H]4CC[C@@]3(C)[C@]1(C)CC2)C(=O)OC
Activity [1]: 0.7%
Activity [2]: 0.7%
Activity [3]: 101%
Activity [4]: 96.2%

CC1(C)CC[C@]2(C(=O)O)CC[C@]3(C)C(=CC[C@@H]4[C@@]5(C)Cc6nc7ccccc7nc6C(C)(C)[C@@H]5CC[C@]43C)[C@@H]2C1
Activity [1]: 0%
Activity [2]: 72.7%
Activity [5]: 92.6%
